Measured values as given in patent US6232314A, “Arylalkylpiperazine compounds as antioxidants” (Monash University, priority 1996, dated 2001).
Where two headings read alike, the source gives them in different places.

Columns and labels:
[1] = tested on: murine neocortical neurones; assay: Assay for NMDA-induced toxicity in neuronal cultures (MTT); format: cell-based; settings: Mus musculus, NMDA 600 μM, 1 h, compound added 30 min prior, read-out: EC50 (inhibition of NMDA-induced toxicity)
Description: Neuronal cell death was assessed using a 3-(4,5-dimethylthiazol-2yl)-2,5-diphenyltetrazolium bromide (MTT) assay in which NMDA-induced cellular changes are reflected as altered mitochondrial activity (Ankarcrona et al., 1995), as estimated by the formation of a formazan dye, which is measured spectrophotometrically. The procedure employed is essentially that of Roehm et al. (1991) with minor modifications as previously described elsewhere in work from our laboratories Larm et al. (1996).
Primary cultures of murine neocortical neurones were established as described elsewhere (Larm et al., 1996). The effects of experimental compounds were tested in the cultures at 8 days in vitro. Exposure to NMDA (600 μM, 1 h) and other compounds was performed in an humidified incubator (5% CO2, 8% O2) at 37° C. in anti-oxidant free medium with compounds under evaluation being added 30 min prior to NMDA. For these conditions the culture medium was modified by omitting the following components: D,L-α-tocopherol, D,L-α-tocopherol acetate, catalase, superoxide dismutase and L-glutamine. Other details are described in Larm et al. (1996). Absorbance was read at 570 nm using a Ceres UV900 microplate reader. Control cultures were included in each experiment containing either vehicle alone or vehicle plus compound. These controls were taken as 100% neuronal viability, under the experimental conditions, and each experiment also included 500 μM L-glutamate representing 100% glutamatergic neuronal cell death. Background cell death in vehicle control cultures was 5-8%.
Concentration-response curves were generated as described elsewhere (Larm et al., 1996).

[2] = target: NMDA receptor-ionophore complex (polyamine-sensitive ifenprodil binding site); assay: NMDA assay: competitive binding against [125I]ifenprodil in rat cortical membranes; settings: 30 min, 20° C., pH 7.7
Description: The NMDA receptor-ionophore complex consists of a number of interacting domains, including one for polyamines where ifenprodil binds to exert its non-competitive antagonism.
The purified material was stored in methanol at -20° C.
Incubations were for 30 min. at 20° C., in triplicate, employing 12 concentrations of competing drugs. Non-specific binding was defined with 10 mM spermine. Assays were terminated by rapid filtration through GF/B filter paper and washing.

[3] = tested on: lipid peroxidation (MDA formation) in rat brain homogenate; assay: Antioxidant assay: Fe3+-stimulated lipid peroxidation (TBARs / MDA formation) in rat brain homogenate; format: biochemical
Description: Lipid peroxidation has been assessed in the present study using two procedures adopted from that described by Ohkawa et al. (1979) and Cheng et al. (1994). The compounds of the present invention have shown significant antioxidant effect in both assay systems.
Malondialdehyde (MDA) is one of the breakdown products of lipid peroxidation. MDA reacts with thiobarbituric acid (TBA) to produce a characteristic pink colour that can be measured spectrophotomerically. […] The present method has been modified from those described by Ohkawa et al. (1979) and Cheng et al. (1994).
Briefly, rat brain 10% homogenates were prepared in aqueous 20 mM Tris-HCl buffer, pH 7.4 media using a Polytron homogeniser. Assays contained 100 μl of rat brain homogenate and various concentrations of test compound (10 μl) were incubated for 10 min at 37° C. Ten μl of 1.0 or 0.1 mM Fe^3+ solution was then added to stimulate lipid peroxidation and the homogenates were incubated for a further 30 min at 37° C. The reaction was stopped by addition of sodium dodecyl sulphate (100 μl of 8.1% wt/vol solution) and 750 μl of 20% sodium acetate buffer (pH 3.5). The precipitated proteins were then removed by centrifugation at 10000 g for 15 min. Five hundred μl of clear supernatant was heated with 1 ml TBA solution (0.8% wt/vol) at 95° C. for 60 min. The samples were cooled and 200 μl of each sample was pipetted into a 96 well plate and absorbencies read at 532 nm using a Ceres UV900C microplate reader. Blank values representing samples containing 20 mM Tris-HCl and Fe^3+ only were subtracted from all values. Each value was expressed as a percentage of that for samples containing homogenate and Fe^3+ only (ie, no drug). From concentration response curves the concentrations causing 50% inhibition of MDA formation (IC50 values) for the test compounds were determined by computer-assisted linear regression analysis according to published methods (Leutner, 1982). These compared favourably with the values obtained in the assay with the benchmark antioxidant compound trolox. […]

[4] = tested on: polyamine sensitive binding site of the NMDA receptor complex; settings: Carter et al., Reynolds et al., Robinson et al.; cited from earlier work
[5] = Gotti et al., 1988; cited from earlier work
[6] = tested on: methamphetamine-induced loss of neostriatal tyrosine hydroxylase activity; settings: mice; Sonsalla et al., 1991; cited from earlier work
[7] = Fe^3+ 100 μM, read-out: ~IC50 (inhibition of MDA formation), Fe^3+ 100 μM
[8] = Fe^3+ 1000 μM, read-out: ~IC50 (inhibition of MDA formation), Fe^3+ 1000 μM

Row | Structure (SMILES) | Ki [2] [µM] | IC50 [3, 7] [µM] | IC50 [3, 8] [µM] | EC50 [1] [µM] | interaction with the polyamine sensitive site of the NMDA receptor complex [4] | neuroprotective properties / antiischaemic [5] | protection from methamphetamine-induced loss of neostriatal tyrosine hydroxylase activity [6]
1 | C[C@@H]([C@H](O)c1ccc(O)cc1)N1CCN(Cc2cc(C(C)(C)C)c(O)c(C(C)(C)C)c2)CC1 (relative stereo) | – | – | – | 3.01 | – | – | –
2 | C[C@H]([C@H](O)c1ccc(O)cc1)N1CCN(Cc2cc(C(C)(C)C)c(O)c(C(C)(C)C)c2)CC1 (relative stereo) [Compound 2 ((R, R)-racemic)] | – | – | – | 1.28 | – | – | –
3 | CC(C)(C)c1cc(CN2CCN(CC(O)c3ccc(Br)cc3)CC2)cc(C(C)(C)C)c1O (stereo not shown) [Compound 65, 1-(2-(4-bromophenyl)-2-hydroxy)ethyl-4-(3,5-bis(1,1-dimethylethyl)-4-hydroxyphenyl)methylpiperazine] | 7 ± 1.5 | ~96.8 | ~53.3 | 0.24 | – | – | –
4 | CC(C)(C)c1cc(CN2CCN(CC(O)c3ccc(F)cc3)CC2)cc(C(C)(C)C)c1O (stereo not shown) [Compound 161, 1-(2-(4-fluorophenyl)-2-hydroxy)ethyl-4-(3,5-bis(1,1-dimethylethyl)-4-hydroxyphenyl)methylpiperazine] | 5.4 ± 0.6 | ~19.5 | ~15.2 | – | – | – | –
5 | CC(C)(C)c1cc(CN2CCN(CC(O)c3ccc(Cl)s3)CC2)cc(C(C)(C)C)c1O (stereo not shown) [Compound 229, 1-(2-(2-chlorothiophen-5-yl)-2-hydroxy)ethyl-4-(3,5-bis(1,1-dimethylethyl)-4-hydroxyphenyl)methylpiperazine] | 19.6 ± 5.2 | – | – | – | – | – | –
6 | CC(C)(C)c1cc(CN2CCN(CC(O)c3cccc([N+](=O)[O-])c3)CC2)cc(C(C)(C)C)c1O (stereo not shown) [Example 6, 1-(2-(3-nitrophenyl)-2-hydroxy)ethyl-4-(3,5-bis(1,1-dimethylethyl)-4-hydroxyphenyl)methyl piperazine] | 15.1 ± 6.1 | ~32.4 | ~26.6 | – | – | – | –
7 | CC(C)(C)c1cc(CN2CCN(CC(O)c3cccc(Cl)c3)CC2)cc(C(C)(C)C)c1O (stereo not shown) [Example 12, 1-(2-(3-chlorophenyl)-2-hydroxy)ethyl-4-(3,5-bis(1,1-dimethylethyl)-4-hydroxyphenyl)methylpiperazine] | – | – | – | 0.76 | – | – | –
8 | Cc1cc(OCCN2CCN(CC(O)c3ccc(Cl)cc3)CC2)c(C)c(C)c1O (stereo not shown) [Example 21, 1-(2-(4'-chlorophenyl)-2-hydroxy)ethyl-4-(2-(2', 3', 5'-trimethyl-4'-hydroxyphenoxy))ethyl piperazine] | 6.1 ± 2 | < 3 | < 1 | – | – | – | –
9 | OC(CN1CCC(Cc2ccc(F)cc2)CC1)c1ccc(Cl)cc1 (stereo not shown) [eliprodil] | – | – | – | – | interacting with the polyamine sensitive binding site of the NMDA receptor | neuroprotective properties in models of neurodegeneration following ischaemia | –
10 | CC(C(O)c1ccc(O)cc1)N1CCC(Cc2ccccc2)CC1 (stereo not shown) [ifenprodil] | 19.5 ± 1.2 | – | – | – | interacting with the polyamine sensitive binding site of the NMDA receptor | neuroprotective properties in models of neurodegeneration following ischaemia | protect mice from the methamphetamine-induced loss of neostriatal tyrosine hydroxylase activity
11 | Cc1c(C)c2c(c(C)c1O)CCC(C)(C(=O)O)O2 (stereo not shown) [trolox, reference compound] | – | ~88.2 | ~90.8 | – | – | – | –

The next lines start with results.

Row | Ki [2] [µM] | IC50 [3, 7] [µM] | IC50 [3, 8] [µM] | Structure (SMILES) | EC50 [1] [µM] | interaction with the polyamine sensitive site of the NMDA receptor complex [4] | neuroprotective properties / antiischaemic [5] | protection from methamphetamine-induced loss of neostriatal tyrosine hydroxylase activity [6]
12 | 15.7 ± 4.6 | ~16.8 | ~14.9 | C[C@H]([C@H](O)c1ccc(O)cc1)N1CCN(Cc2cc(C(C)(C)C)c(O)c(C(C)(C)C)c2)CC1 (relative stereo) [2 ((R, R)-racemic)] | – | – | – | –
13 | 14.5 ± 5.6 | ~23.8 | ~24.1 | C[C@@H]([C@H](O)c1ccc(O)cc1)N1CCN(Cc2cc(C(C)(C)C)c(O)c(C(C)(C)C)c2)CC1 (relative stereo) [2 ((R, S)-racemic)] | – | – | – | –
14 | 13 ± 0.6 | ~32.7 | ~18.3 | CC(C)(C)c1cc(CN2CCN(CC(O)c3ccc(O)cc3)CC2)cc(C(C)(C)C)c1O (stereo not shown) [Compound 1, 1-(2-(4-hydroxyphenyl)-2-hydroxy)ethyl-4-(3,5-bis(1,1-dimethylethyl)-4-hydroxyphenyl)methylpiperazine] | – | – | – | –
15 | 10.8 ± 0.6 | ~57.2 | ~41.4 | CC(C)(C)c1cc(CN2CCN(CC(O)c3ccc(Cl)cc3)CC2)cc(C(C)(C)C)c1O (stereo not shown) [Compound 33, 1-(2-(4-Chlorophenyl)-2-hydroxy)ethyl-4-(3,5-bis(1,1-dimethylethyl)-4-hydroxyphenyl)methylpiperazine] | 0.39 | – | – | –
16 | 14.6 ± 2.8 | ~25.4 | ~36.3 | CC(C(O)c1ccc(Cl)cc1)N1CCN(Cc2cc(C(C)(C)C)c(O)c(C(C)(C)C)c2)CC1 (stereo not shown) [Compound 34, 1-(2-(4-Chlorophenyl)-2-hydroxy-1-methyl)ethyl-4-(3,5-bis(1,1-dimethylethyl)-4-hydroxyphenyl)methylpiperazine] | – | – | – | –
17 | 16.8 ± 3.2 | ~27.9 | ~9.3 | CC(C)(C)c1cc(CN2CCN(CCC(O)c3ccc(Cl)cc3)CC2)cc(C(C)(C)C)c1O (stereo not shown) [Compound 35, 1-(3-(4-Chlorophenyl)-3-hydroxy)propyl-4-(3,5-bis(1,1-dimethylethyl)-4-hydroxyphenyl)methylpiperazine] | – | – | – | –
18 | 15.2 ± 3.9 | ~3.6 | ~2.4 | Cc1c(C)c2c(c(C)c1O)CCC(C)(CN1CCN(CC(O)c3ccc(Cl)cc3)CC1)O2 (stereo not shown) [Compound 49] | 2.9 | – | – | –
19 | 11.7 ± 1 | ~59.6 | ~22.3 | CC(C)(C)c1cc(CN2CCN(CC(O)c3ccc(OC(F)(F)F)cc3)CC2)cc(C(C)(C)C)c1O (stereo not shown) [Compound 193, 1-(2-(4-trifluoromethoxyphenyl)-2-hydroxy)ethyl-4-(3,5-bis(1,1-dimethylethyl)-4-hydroxyphenyl)methylpiperazine] | – | – | – | –
20 | 19.1 ± 5.7 | – | – | CC(C)(C)c1cc(CN2CCN(CC(O)c3ccc4c(c3)OCO4)CC2)cc(C(C)(C)C)c1O (stereo not shown) [Compound 211, 1-(2-(3,4-methylenedioxyphenyl)-2-hydroxy)ethyl-4-(3,5-bis(1,1-dimethylethyl)-4-hydroxyphenyl)methyl piperazine] | – | – | – | –
21 | 8.5 ± 3.1 | ~9.9 | ~10.3 | COc1ccc(OC)c(C(O)CN2CCN(Cc3cc(C(C)(C)C)c(O)c(C(C)(C)C)c3)CC2)c1 (stereo not shown) [Compound 247, 1-(2-(2,5-dimethoxyphenyl)-2-hydroxy)ethyl-4-(3,5-bis(1,1-dimethylethyl)-4-hydroxyphenyl)methylpiperazine] | – | – | – | –
22 | 13.2 ± 2.6 | ~59.4 | ~38.5 | Cc1cc(CN2CCN(CC(O)c3ccc(Cl)cc3)CC2)cc(C(C)(C)C)c1O (stereo not shown) [Compound 265, 1-(2-(4-chlorophenyl)-2-hydroxy)ethyl-4-(3-(1,1-dimethylethyl)-4-hydroxy-5-methylphenyl)methylpiperazine] | – | – | – | –
